This note sets out measurements from US10265326B2, “Form C of avibactam sodium” (Sandoz AG, priority 2015, dated 2019).

Entries after “also recorded” stand apart in the source; their conditions may differ.

Data set [1] can be described thus: Stress tests: open storage at room temperature over saturated salt solutions at different relative humidities, analysis by PXRD. The data set is classed as physicochemical. Particulars: for physical form found by PXRD after stress test: open storage. As to the method: Powder X-ray diffraction (PXRD) was performed with a PANalytical X'Pert PRO diffractometer equipped with a theta/theta coupled goniometer in transmission geometry, Cu-Kalpha1,2 radiation (wavelength 0.15419 nm) with a focusing mirror and a solid state PIXcel detector. Diffractograms were recorded at a tube voltage of 45 kV and a tube current of 40 mA, applying a stepsize of 0.013° 2-Theta with 40 s per step (255 channels) in the angular range of 2° to 40° 2-Theta at ambient conditions. A typical precision of the 2-Theta values is in the range of ±0.2° 2-Theta. Thus, the diffraction peak of substantially pure form C that appears for example at 6.5° 2-Theta can appear between 6.3 and 6.7° 2-Theta on most X-ray diffractometers under standard conditions.
Crystalline form C (prepared according to example 1 herein) was open stored at room temperature in desiccators over saturated salt solutions generating different relative humidities.

Data set [2] is described as follows: Gravimetric moisture sorption. The data set is classed as physicochemical. The following applies: relative humidity 0 to 60%, (25.0±0.1) °C. Here is the method: Moisture sorption isotherms were recorded with an SPSx-1μ moisture sorption analyzer (ProUmid, Ulm). The measurement cycle was started at ambient relative humidity (RH) of 30% and first decreased to 3% RH and then to 0% RH. […] The time per step was set to a minimum of 2 hours and a maximum of 6 hours. If an equilibrium condition with a constant mass of ±0.01% within 1 hour was reached before the maximum time for all examined samples the sequential humidity step was applied before the maximum time of 6 hours. If no equilibrium was achieved the consecutive humidity step was applied after the maximum time of 6 hours. The temperature was 25±0.1° C.

Consider `NC(=O)[C@@H]1CC[C@@H]2CN1C(=O)N2OS(=O)(=O)O.[Na]` [form C, sodium salt of (1R,2S,5R)-7-oxo-6-sulfooxy-1,6-diazabicyclo[3.2.1]octane-2-carboxamide], for which, in data set [1], the “relative humidity at or below which no transformation into any other physical form occurs” value is at most 55%. Moreover, the “physical form found by PXRD after stress test” value in data set [1] (45% relative humidity (K2CO3), 9 days) is “substantially pure form C after 9 days and after”; in data set [1] (45% relative humidity (K2CO3), 277 days), “remains stable; also recorded: substantially pure form C after 9 days and after”; in data set [1] (55% relative humidity (Ca(NO3)2 x 4H2O), 9 days) it was “remains stable; also recorded: substantially pure form C after 9 days”; in data set [1] (63% relative humidity (NaBr), 3 days) it was “traces of form A detectable after 3 days”; in data set [1] (75% relative humidity (NaCl), 3 days), “mainly form A with traces of form C after”; in data set [1] (86% relative humidity (KCl), one day), “form A after one day”. In addition, the “weight change, based on the weight of crystalline form C” value in data set [2] is listed as “not more than 0.5%”.
